Data published in PubChem BioAssay (NCI).
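Where inhibition never reached the appropriate level, the endpoint shown equals the highest concentration tested. Otherwise, values were interpolated linearly from a five-concentration, 48-hour dose response in 96-well plates. GI50 marks 50% less growth. TGI marks complete inhibition of growth.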

Key:
Test in all cases: NCI tumour cell line growth inhibition, 48 h
NCI-H23 lung = test system: NCI-H23 lung
M14 melanoma = test system: M14 melanoma
TK-10 renal = test system: TK-10 renal
NCI-H522 lung = test system: NCI-H522 lung
OVCAR-4 ovarian = test system: OVCAR-4 ovarian
HCC-2998 colon = test system: HCC-2998 colon
MOLT-4 leukemia = test system: MOLT-4 leukemia
UACC-62 melanoma = test system: UACC-62 melanoma
NCI-H460 lung = test system: NCI-H460 lung

Row | SMILES | GI50 (NCI-H23 lung) [µM] | TGI (NCI-H23 lung) [µM] | GI50 (M14 melanoma) [µM] | TGI (M14 melanoma) [µM] | GI50 (TK-10 renal) [µM] | TGI (TK-10 renal) [µM] | GI50 (NCI-H522 lung) [µM] | TGI (NCI-H522 lung) [µM] | GI50 (OVCAR-4 ovarian) [µM] | TGI (OVCAR-4 ovarian) [µM] | GI50 (HCC-2998 colon) [µM] | TGI (HCC-2998 colon) [µM] | GI50 (MOLT-4 leukemia) [µM] | TGI (MOLT-4 leukemia) [µM] | GI50 (UACC-62 melanoma) [µM] | TGI (UACC-62 melanoma) [µM] | GI50 (NCI-H460 lung) [µM] | TGI (NCI-H460 lung) [µM]
1 | O=C(Nc1ccc(Cl)c(Cl)c1)NS(=O)(=O)c1cnccc1Oc1ccc(F)cc1 | 3.37 | 24.5 | 5.24 | > 100 | 3.69 | 21.6 | 2.8 | 10.4 | 3.26 | > 100 | 4.43 | 38.1 | 2.68 | 8.58 | 4.16 | > 100 | 3.09 | 20.1
2 | Cc1cc(I)cc(CN(C)CCCN2CCCC2)c1O | 30 | > 100 | 16.4 | 33 | 17 | 36 | 20.7 | 45.9 | 34 | > 90.1 | 19.1 | 35.6 | 16.1 | 39.1 | 5.47 | 13.1 | 16.9 | 38.4
3 | Oc1ccccc1-c1nn(CNc2ccccc2Cl)c(=S)o1 | > 100 | > 100 | > 100 | > 100 | 42.2 | > 100 | > 100 | > 100 |  |  |  |  |  |  | 71.7 | > 100 | 37.4 | > 100
4 | COC(=O)C1(C)Cc2cc(OC(C)=O)c(OC(C)=O)cc2N1 (stereo not drawn) | 18.2 | 62.5 | 15.6 | 54.4 | 11.1 | 44.1 | 0.633 | 1.8 | 9.34 | 22.9 | 17.8 | 33 | 8.18 | > 60.2 | 4.09 | 17.5 | 32.8 | > 100
5 | O=C(O)[C@H](c1ccccc1)[C@@H](C(=O)O)c1ccccc1 |  | > 100 |  | > 100 |  | > 100 |  | > 100 |  | > 100 |  | > 100 |  | > 100 |  | > 100 |  | > 100
6 | C=C1C(=O)O[C@H]2[C@H]1CC/C(COC(=O)NCC(C)c1ccc(CC(C)C)cc1)=C\CC[C@@]1(C)O[C@@H]21 (stereo partly drawn) | 3.69 | 8.69 |  |  | 3.34 | 7.23 | 0.661 | 1.77 | 2.31 | 6.59 | 2.17 | 6.72 | 0.974 | 3.05 | 0.751 | 2.35 | 4.69 | 10
7 | CN1/C(=C\C=C\C2=[N+](C)c3ccccc3C2(C)C)C(C)(C)c2ccccc21 | 0.0189 | 0.529 | 0.223 | 1.31 | 0.56 | 14.8 | 0.0782 | 10.2 | 0.0922 | 5.21 | 0.041 | 1.25 | 0.146 | 1.87 | 0.124 | 1.45 | 0.0541 | 0.922
8 | O=C1CCCCN1CCCCC#Cc1cccc(C#Cc2cccnc2)c1 | 17.1 | 37.7 | 14.3 | 34.7 | 49.8 | > 100 | 19 | 63.7 | 13.4 | 32.1 | 6.52 | 23.1 | 73.1 | > 100 | 4.82 | 16.9 | 19.6 | > 100
9 | Nc1ccc(/C=C/C(=O)NCc2cc3cc(-c4ccc(C(=O)N5CCC(F)(F)CC5)cc4)cc(-c4ccc(F)cc4)c3o2)cn1 | > 100 | > 100 | 0.459 | > 55.8 | > 100 | > 100 | 0.773 | > 100 | > 71.5 | > 100 | 10.5 | > 100 | 3.46 | > 100 | > 100 | > 100 | 10.9 | > 100
10 | COc1ccc(OC)c(Cn2cc3c(c2-c2ccccc2)CCc2cnoc2-3)c1 | 7.99 | > 100 | 4.82 | > 100 | 8.01 | > 100 | 1.74 | 6.25 | 11.3 | > 100 | 8.83 | > 100 | 3.95 | > 100 | 3.8 | > 100 | 3.3 | > 100
11 | COC(=O)C(/C(=N\O)C(=O)Nc1cccc(Cl)c1C)c1cnc2ccccc2n1 (stereo not drawn) |  | > 100 |  | > 100 |  | > 100 |  | > 100 |  | > 100 |  | > 100 |  | > 100 |  | > 100 |  | > 100
12 | c1c[nH]c(CN2CCOCC2)n1 |  | > 100 |  | > 100 |  | > 100 |  | > 100 |  | > 100 |  |  |  | > 100 |  | > 100 |  | > 100
13 | Cn1cc(C2=C(c3cn(C4CCN(Cc5ccccn5)CC4)c4ccccc34)C(=O)NC2=O)c2ccccc21 | 6.31 | > 100 | 4.61 | > 100 | > 41.5 | > 100 | 4.19 | > 100 |  |  | > 100 | > 100 | 3.52 | > 100 | 5.12 | > 100 | 4.92 | > 100
14 | CC(=O)c1ccc(O)c(CN(C2CCCCC2)C2CCCCC2)c1O |  | > 100 |  | > 100 |  | > 100 |  | > 100 |  | > 100 |  |  |  | > 100 |  | > 100 |  | > 100
15 | C=C1C(O)CC[C@]2(C)C1C1OC(C)(C)O[C@]13CC(=O)C(C)=C([C@H]1OC(C)(C)OC12)C3(C)C (stereo partly drawn) |  | > 100 |  |  |  | > 100 |  |  |  | > 100 |  | > 100 |  | > 100 |  | > 100 |  | > 100
16 | O=C(O)[C@@H](Cc1ccc2ccccc2c1)NC(=O)n1c2ccccc2c2ccccc21 | 3.72 | 26.7 | 3.25 | 19.5 | 14.9 | > 100 | 0.356 | 2.21 | 6.8 | > 100 | 3.91 | 19.1 | 4.12 | 20.7 | 0.435 | 16.1 | 3.47 | 33.5
17 | C=C1C[C@@H]2CC[C@@]34C[C@H]5O[C@H]6[C@@H](O3)[C@H]3O[C@H](CC[C@@H]3O[C@H]6[C@@H]5O4)CC(=O)C[C@@H]3[C@@H](OC)[C@@H](C[C@H](O)CN)O[C@H]3C[C@H]3O[C@@H](CC[C@@H]1O2)C[C@@H](C)C3=C | < 0.01 | > 100 | < 0.0106 | > 81.9 | 13.9 | > 100 | < 0.01 | 11.8 | 1.03 | > 100 | < 0.01 | > 100 | < 0.01 | > 100 | < 0.01 | > 100 | < 0.01 | > 100

Row | SMILES | GI50 (NCI-H23 lung) [µM] | TGI (NCI-H23 lung) [µM] | GI50 (M14 melanoma) [µM] | TGI (M14 melanoma) [µM] | GI50 (TK-10 renal) [µM] | TGI (TK-10 renal) [µM] | GI50 (NCI-H522 lung) [µM] | TGI (NCI-H522 lung) [µM] | GI50 (OVCAR-4 ovarian) [µM] | TGI (OVCAR-4 ovarian) [µM] | GI50 (HCC-2998 colon) [µM] | TGI (HCC-2998 colon) [µM] | GI50 (MOLT-4 leukemia) [µM] | TGI (MOLT-4 leukemia) [µM] | GI50 (UACC-62 melanoma) [µM] | TGI (UACC-62 melanoma) [µM] | GI50 (NCI-H460 lung) [µM] | TGI (NCI-H460 lung) [µM]
18 | Cc1ccccc1NC(=O)C1C(=O)N(c2ccccc2C)C(=O)/C1=N\NC(N)=S (stereo not drawn) |  | > 100 |  | > 100 |  | > 100 |  | > 100 |  |  |  |  |  | > 100 |  | > 100 |  | 
19 | O=C(N/N=C/c1ccccc1O)c1ccccc1 | 4.92 | > 100 | 1.75 | 15.3 | 4.11 | > 100 | 2.67 | 53 | 0.725 | > 100 | 0.6 | 8.34 | 0.503 | > 100 | 1.87 | 7.16 | 1.18 | > 100
20 | C(=N\Nc1nnn(Cc2ccccc2)n1)/c1ccccc1 | 6.97 | > 53.8 | 1.31 | 26.5 | 20 | > 100 | 0.56 |  | > 100 | > 100 | 5.07 | > 100 | 3.82 | > 100 | 2.2 | > 100 | 2.51 | > 33.8
21 | O=c1c(F)cn(Cc2ccccc2CCl)c(=O)n1Cc1ccccc1CCl | 2.42 | 7.05 | 1.69 | 4.05 | 2.15 | 5.44 | 1.45 | 3.01 | 3.5 | 12.8 | 2.09 | 4.47 | 1.77 | 4.69 | 1.33 | 2.94 | 2.08 | 4.9
22 | COc1cc(NCCCCCCCNC(C)C)c2nccc(C)c2c1 | 12.1 | 26.2 | 7.38 | 20.7 | 17.1 | 32.7 | 16 | 35 | 4.08 | 15.6 | 6.29 | 19 | 6.95 | 23 | 4.88 | 17.6 | 12.2 | 27.5
23 | COC(=O)C1(O)CC(=O)CCC1c1ccc(OC)cc1 (stereo not drawn) |  | > 100 |  | > 100 |  | > 100 |  | > 100 |  | > 100 |  | > 100 |  | > 100 |  | > 100 |  | > 100
24 | CCN(C(=O)/C=C/c1ccco1)c1ccccc1 |  | > 100 |  | > 100 |  | > 100 |  | > 100 |  | > 100 |  | > 100 |  | > 100 |  | > 100 |  | > 100
25 | CC(=O)OC(Cn1cncn1)(Cn1cncn1)c1ccc(Cl)cc1Cl |  |  |  | > 100 |  | > 100 |  | > 100 |  | > 100 |  | > 100 |  | > 100 |  |  |  | > 100
26 | Cc1ccc(NC(=O)c2cc(S(=O)(=O)N3C(=O)NC(=O)NS3(=O)=O)c(S)cc2Cl)cc1 | 32.3 | 99.6 | 24.6 | 66.8 | 27.8 | 71.3 | 36.1 | > 100 | 47.6 | > 100 | 28.5 | 60.5 | 15.3 | 44 | 15.7 | 36 | 29.4 | > 100
27 | O=C(N/N=C/c1cccc(F)c1)c1ccncc1 |  | > 100 |  | > 100 |  | > 100 |  |  |  |  |  | > 100 |  | > 100 |  |  |  | > 100
28 | c1ccc2[nH]c(-c3ccc(Nc4nc(N5CCCCC5)nc(N5CCOCC5)n4)cc3)nc2c1 | 3.05 | 15.7 | 2.05 | 4.72 | 3.21 | 9.26 | 2.36 | 6.22 | 3.98 | 25.4 | 3.74 | > 100 | 2.73 | 7.89 |  |  | 2.44 | 6.18
29 | CC(C)(C)OC(=O)NCCCCCCCn1c2c(c3ccccc3c1=O)C(=O)c1ccccc1-2 | 26 | > 100 | 44.4 | > 100 | 38.3 | > 100 | 26.4 | > 100 | 30.5 | > 100 | 40.6 | > 100 | 25.6 | > 100 | 20 | 72.8 | 28.6 | > 100
30 | CC(NC(=O)N(C)C)NC(=O)N(C)C |  | > 10 |  | > 10 |  | > 10 |  | > 10 |  | > 10 |  | > 10 |  | > 10 |  | > 10 |  | > 10
31 | COc1ccc(C(=O)c2ccc([As]=O)cc2)cc1 (stereo not drawn) | 0.108 | 0.322 | 0.0629 | 0.218 | 0.057 | 0.18 | 0.0902 | 0.254 | 0.0454 | 0.182 | 0.113 | 0.246 | 0.0389 | 0.265 |  |  | 0.172 | 0.416
32 | CC(C)CCC1(CCN)C(=O)NC(=O)NC1=O |  | > 100 |  | > 100 |  | > 100 |  | > 100 |  | > 100 |  |  |  | 72.2 |  | > 100 |  | > 100
33 | O=C(O)c1ccccc1/C=N/N=C1c2ccccc2-c2ccccc21 |  | > 100 |  | > 100 |  | > 100 |  | > 100 |  | > 100 |  |  |  | 71 |  | > 100 |  | 70.2
